Data: patent US20120252773A1, “Method and composition for inhibiting cell proliferation and angiogenesis” (priority 2005, published 2012)

Experiments:
[1] = tested on: Chick Chorioallantoic Membrane (CAM); assay: Chick chorioallantoic membrane (CAM) assay, blood vessel density; type: in vivo; settings: 12.5 μg per embryo in 0.5% methylcellulose, vs vehicle control
Experimental: A CAM assay was conducted as previously described (K. Amin, J. Li, and W-R. Chao, Cancer Biol. Ther. 2: 173-178, (2003). Briefly, fresh fertile eggs were incubated in a standard egg incubator at 37° C. for 3 days. On Day 3, eggs were cracked under sterile conditions and embryos were placed into 20×100 mm sterile plastic Petri dishes and cultivated at 37° C. in an embryo incubator with a water reservoir on the bottom shelf. Air was continuously bubbled into the water reservoir using a small pump so that the humidity in the incubator was kept constant. On Day 6, a sterile silicon “o” ring was placed on each CAM, and test compound (2) dissolved in 0.5% methylcellulose was delivered into each “o” ring under sterile conditions. Embryos were returned to the incubator. Control embryos received 10 μL of vehicle alone, while 12.5 μg of (2) was delivered to test embryos. On Day 8, embryos were removed from the incubator and kept at room temperature while blood vessel density was determined under each “o” ring using an image capturing system at a magnification of 160×.

[2] = tested on: mouse transformed fibroblast cell line (L929); assay: Cell growth inhibition, MTT, 7 days, L929; type: cell-based; settings: L929, 7 days, compared with human cancer cell lines
Experimental: To measure the inhibitory activity of (2) on growth of HDMVEC cells (Clonetics, San Diego, Calif.), 2,000 cells were seeded in each well of a 96-well plate in […] of EGM medium (Clonetics) supplemented with 5% fetal bovine serum (Sigma). The plate was incubated at 37° C. in a tissue culture incubator for 24 h, and then various concentrations of (2) dissolved in EGM were added to each well in 5-10 μl aliquots. Four wells were used for each concentration. Medium in each well was renewed with fresh test solution added every other day. After 7 days of culture, the viable cells were measured using reagents from an MTT kit (Promega Corporation, Madison, Wis.), using instructions provided by the supplier. The number of viable cells in treated wells relative to those in control wells gave the percentage of inhibition.
Compound (2) was evaluated in several different human cancer cell lines for its effects on cell growth. The human cancer cell lines used (ATCC) were A549 lung cancer cells, U-87 brain cancer cells, SKOV-3 ovarian cancer cells, PC-3 non-androgen dependent prostate cancer cells, and MDA MB-231 estrogen-independent breast cancer cells. Human umbilical vein endothelial cells (HUVEC) and a mouse transformed fibroblast cell line (L929) were also included in the assay for comparison. […]

[3] = tested on: HIF-1α protein in PC-3 prostate cancer cells; assay: HIF-1α protein expression by immunoblotting, PC-3 cells; type: cell-based, human; settings: 6 h
Experimental: (§1) Hypoxia experiments were performed in either of two ways. To produce a very low ambient oxygen concentration (effectively anoxia), we used a protocol in which cells were incubated in a 5% CO2-air atmosphere at 37° C. overnight and then placed in aluminum gas-exchange chambers maintained at 37° C. (Laderoute K R et al. Mol Cell Biol 22: 2515-2523, (2002); Laderoute K R et al. Mol Cell Biol 24: 4128-4137, (2004)). The chambers containing the cells were then placed in a 37° C. circulating water bath and the original atmosphere was repeatedly exchanged with 5% CO2-95% N2 using a manifold equipped with a vacuum pump and a gas cylinder. Atmospheric oxygen partial pressure (pO2) values of less than or equal to 0.01% (relative to air at pO2 of about 21%) can be achieved inside the chambers using this system. Following various hypoxic exposures, the chambers were opened an anaerobic glove box (Bactron X, Sheldon Manufacturing Inc., Cornelius, Oreg.; attached to a cylinder containing 5% CO2-95% N2) to prepare cell lysates without significant reoxygenation. All manipulations of hypoxic cells were performed in the anaerobic glove box. Atmospheric oxygen levels in both the chambers and the glove box have been measured and calibrated using a polarographic oxygen electrode (Oxygen Sensors, Inc., Norristown, Pa.). Hypoxia experiments involving a pO2 of 1% were performed by equilibrating the glove box with an atmosphere of 1% O2 5% CO2 95% N2 held at 37° C. with a circulating fan. Cells were incubated inside a humidified space in the glove box and the medium on the cells was gently and continually agitated by using a rotary shaker. For these experiments, we used RAW 264.7 immortalized mouse macrophages as normal control cells, PC-3 prostate cancer cells, and MDA-MB-231 breast cancer cells, all available from ATCC.
(§2) We used immunoblotting to evaluate the experiments. Nuclear lysates were used to detect HIF-1α protein by immunoblotting (Murphy B J et al. Biochem Biophys Res Commun (In Press): 2005). Briefly, cells were placed on ice in air or on Super Ice® cold packs in the anaerobic glove box and the medium was removed. […] After spinning at 9,000×g for 5 min at 4° C., the protein concentrations of the supernatants were determined by using a bicinchoninic acid assay (Pierce Biotechnology). […] Primary antibody binding was detected and visualized by using the ECL Plus Western Blotting Detection System (Amersham Pharmacia Biotech) according to the supplier's instructions. HIF-1α protein was detected by using an anti-HIF-1α monoclonal antibody (Novus Biologicals, Cat. No. NB100-123; diluted 1:500) and a horseradish peroxidase-conjugated anti-mouse IgG secondary antibody (Santa Cruz Biotechnology, Cat. No. sc-2062; diluted 1:20,000). […]

[4] = tested on: HIF-1α protein in MDA-MB-231 human breast carcinoma cells; assay: HIF-1α protein expression by immunoblotting, MDA-MB-231 cells; type: cell-based; settings: MDA-MB-231, normoxic and anoxic
Experimental: as §1, with “Hypoxia experiments involving a pO2 of 1% were performed by equilibrating the glove box with an atmosphere of 1% O2 5% CO2 95% N2 held at 37° C. with a circulating fan. Cells were incubated inside a humidified space in the glove box and the medium on the cells was gently and continually agitated by using a rotary shaker. For these experiments, we used RAW 264.7 immortalized mouse macrophages as normal control cells, PC-3 prostate cancer cells, and MDA-MB-231 breast cancer cells, all available from ATCC.” left out
as §2, with “experiments.” for “experiments. Nuclear lysates were used to detect HIF-1α protein by immunoblotting (Murphy B J et al. Biochem Biophys Res Commun (In Press): 2005). Briefly, cells were placed on ice in air or on Super Ice® cold packs in the anaerobic glove box and the medium was removed.”

For C[C@@H]1Cc2cc(O)ccc2C2CCC3(C)/C(=C/COCCN(C)C)CCC3C21 (stereo partly drawn) [Compound (2), (E)-3-Hydroxy-7α-methyl-21-[(2-dimethylamino)ethoxy]-19-norpregna-1,3,5(10),17(20)-tetraene], the blood vessel density [1] was “drastically decreased the blood vessel density”, the “effect on growth of L929 mouse fibroblast cells” value [2] was “much less” and the HIF-1α protein expression ([3]; PC-3, anoxic, hypoxic and normoxic conditions, less than or equal to 5 μM) was “potent inhibitory effect”. The “cytotoxicity toward PC-3 cells” value ([3]; PC-3, less than or equal to 5 μM) was “without obvious cytotoxicity” and the HIF-1α protein expression [4] was “potent inhibitor”.
